Source: patent US20110262456A1, “METHOD OF TREATING ISCHEMIA REPERFUSION INJURY” (priority 2008, published 2011)
Like-named read-outs stand apart in the source and are kept apart here.

Experiments:
rabbit heart = settings: application after the onset of cardiac ischemia, rabbit infarct model; cited from earlier work
[1] = test system: HL-60 human promyelocytic leukemia cells; settings: cited from earlier work
rabbit hearts = assay: Rabbit heart regional ischemia/reperfusion, infarct size as percentage of risk zone; type: in vivo, New Zealand White rabbits; settings: ischemia alone, FIG. 9
Description: New Zealand White rabbits of either sex weighing nearly 3 Kg were anesthetized with intravenous sodium pentobarbital (30 mg/kg). Throughout the experiment, additional anesthesia was administered as needed (5-15 mg pentobarbital/15 min) A heating pad maintained rectal temperature between 38.5 and 39.5-C. Animals were intubated through a tracheotomy and ventilated with 100% O2 with the aid of a mechanical ventilator. To administer drugs, a PE 50 catheter filled with heparinized saline was placed in an ear vein. After a left thoractomy, a prominent branch of the left coronary artery was surrounded with a suture (2-0 silk) to form a snare. The rabbits were allowed to stabilize for 15 min after surgery before the protocols were begun. […] The coronary artery was re-occluded, and […] diameter green fluorescent microspheres (Duke Scientific Corp., Palo Alto, Calif.) were infused into the perfusate to demarcate the ischemic zone as the area of tissue without fluorescence (region at risk). […] The areas of infarct and risk zone were determined by planimetry of each slice and volumes were calculated by multiplying each area by its slice thickness and summing them for each heart. Infarct size is expressed as a percentage of the risk zone. […] All data are expressed as mean TS.E.M. One-way analysis of variance (ANOVA) combined with Tukey's posthoc test was performed on baseline hemodynamic and infarct data. […]

N#Cc1c(N)nc(SCC(N)=O)c(C#N)c1-c1ccc(OCC2CC2)cc1 [BAY-60-6583]
reduction of the infarct size (rabbit heart): effective

CNC(=O)[C@H]1O[C@@H](n2cnc3c(NCc4cccc(I)c4)nc(Cl)nc32)[C@H](O)[C@@H]1O [C1-IB-MECA]
apoptosis in HL-60 cells, low concentrations ([1]; 10 nM or 1 μM): protected against | apoptosis in HL-60 cells ([1]; 10-30 μM): induced apoptosis

CNC(=O)[C@H]1O[C@@H](n2cnc3c(NCc4cccc(I)c4)ncnc32)[C@H](O)[C@@H]1O [IB-MECA]
apoptosis in HL-60 cells ([1]; 30 and 60 μM): induced apoptosis

CCNC(=O)[C@H]1O[C@@H](n2cnc3c(N)ncnc32)[C@H](O)[C@@H]1O [NECA, 5′-N-ethylcarboxamidoadenosine]
protection (inhibition of infarct size) (rabbit hearts): 50%
